Reference: patent US20200230100A1, “AGONIST OF 67 KDA LAMININ RECEPTOR AND UTILIZATION THEREOF” (priority 2017, published 2020)

Legend:
Kasumi-1 = test: Anti-cancer action: number of viable cells (ATPlite) after 96 hours of culture; format: cell-based; settings: Kasumi-1 human acute myeloid leukemia cell line
HL60 = test: as above; format: cell-based; settings: HL60 human acute myeloid leukemia cell line
ARH77 = test: as above; format: cell-based; settings: ARH77 human multiple myeloma cell line
Description: (§1) Specifically, OHBFB was added to a medium of various cancer cell lines and the number of viable cells was measured. For comparison, the anti-cancer action of epigallocatechin gallate (hereinafter sometimes referred to as “EGCG”) was also studied similarly.
(§2) Examples of the cancer cell lines include U266 which is a human multiple myeloma cell line, ARH77 which is a human multiple myeloma cell line, RPMI8226 which is a human multiple myeloma cell line, Mec-1 which is a human chronic lymphocytic leukemia cell line, HL60 which is a human acute myeloid leukemia cell line, Kasumi-1 which is a human acute myeloid leukemia cell line, and KU812 which is human chronic myeloid leukemia cell line were used.
(§3) As each of the cancer cell lines, a cell line obtained by subculturing the cells under the conditions of 37° C. and 5% CO2 saturated with water vapor using an RPMI 1640 medium supplemented with a 10% fetal calf serum (FCS), and culturing and maintaining the cells in a logarithmic growth phase.
(§4) EGCG (manufactured by Sigma-Aldrich) was dissolved in ultrapure water to 5 mM, stored at −30° C., and appropriately thawed before use. OHBFB (manufactured by Nagara Bioscience) was dissolved in ultrapure water to 5 mM, stored at −30° C., and appropriately thawed before use.
(§5) Each of the cancer cell lines was suspended in an RPMI 1640 medium supplemented with a 1% FCS, superoxide dismutase (SOD) (5 U/mL), and a catalase (200 U/mL) to 5×10^4 cells/mL, the suspension was seeded at 100 μL/well in a 96-well plate, OHBFB or EGCG at a final concentration of 0, 5, 10, or 25 μM was added thereto, and the cells were cultured for 96 hours. Thereafter, the number of viable cells was measured using a commercially available kit (trade name “ATPlite,” PerkinElmer).

Mec-1 = test: as above; format: cell-based; settings: Mec-1 human chronic lymphocytic leukemia cell line
Description: as §1, §2, §3, §4, §5

U266 [1] = test: as above; format: cell-based; settings: U266 human multiple myeloma cell line
Description: as §1, §2, §3, §4, §5

KU812 = test: as above; format: cell-based; settings: KU812 human chronic myeloid leukemia cell line
Description: as §1, §2, §3, §4, §5

RPMI8226 = test: as above; format: cell-based; settings: RPMI8226 human multiple myeloma cell line
Description: as §1, §2, §3, §4, §5

U266 [2] = test: Anti-cancer activity enhancing action by eriodictyol (ATPlite cell viability, isobologram analysis); format: cell-based, human
U266 [3] = test: Anti-cancer activity enhancing action by flavanone (ATPlite cell viability); format: cell-based, human; settings: U266, flavanone 5 μM with OHBFB 2.5 μM, 96 hours
Description: Specifically, U266 which is a human multiple myeloma cell line was suspended in an RPMI 1640 medium supplemented with 1% FCS, SOD (5 U/mL), and a catalase (200 U/mL) to 5×10^4 cells/mL, and the suspension was seeded at 100 μL per well in a 96-well plate. […] As a control, a sample to which the same volume of PBS had been added instead of flavanone was used. As the flavanone, eriodictyol (manufactured by Extrasynthese Corp.), naringenin (manufactured by Tokyo Chemical Industry Co., Ltd.), and hesperetin (manufactured by Wako Pure Chemical Industries, Ltd.) were used. Subsequently, the cell viability was measured using a commercially available kit (trade name “ATPlite,” PerkinElmer).

U266 [4] = test: Anti-cancer activity enhancing action by PDE5 inhibitor vardenafil (ATPlite cell viability, isobologram analysis); format: cell-based; settings: Homo sapiens, U-266, 96 h, read-out: IC50 of vardenafil alone
Description: Specifically, a human multiple myeloma cell line U266 was suspended in an RPMI 1640 medium supplemented with 1% FCS, SOD (5 U/mL), and a catalase (200 U/mL) to 5×10^4 cells/mL, and the suspension was seeded at 100 μL per well in a 96-well plate.
Subsequently, vardenafil (manufactured by Cayman Chemical Co.) which is a PDE5 inhibitor was added to a final concentration of 5 μM and the mixture was incubated for 3 hours. […] Thereafter, the cell viability was measured using a commercially available kit (trade name “ATPlite,” PerkinElmer).
In addition, the same studies as described above were performed in the presence of vardenafil alone at final concentrations of 0, 5, 10, 25, 50, and 100 μM.

**Q.** With `O=C(O[C@@H]1Cc2c(O)cc(O)cc2O[C@@H]1c1cc(O)c(O)c(O)c1)c1cc(O)c(O)c(O)c1` [EGCG, epigallocatechin gallate] as the compound, how does the IC50 (Kasumi-1) read?
**A.** 9.6 µM

**Q.** And the IC50 (HL60)?
**A.** 9.5 µM

**Q.** What about the IC50 (ARH77) of the same compound?
**A.** 4 µM

**Q.** And the IC50 (Mec-1)?
**A.** 8.3 µM

**Q.** And the IC50 (U266 [1])?
**A.** 11.8 µM

**Q.** And the IC50 (KU812)?
**A.** 6.2 µM

**Q.** What about the IC50 (RPMI8226) of the same compound?
**A.** 11.1 µM

**Q.** Which results are given for `O=C1C[C@@H](c2ccc(O)c(O)c2)Oc2cc(O)cc(O)c21` [eriodictyol]?
**A.** IC50 (U266 [2]; Homo sapiens, U-266, 96 h, read-out: IC50 of eriodictyol alone): 89.4 µM; combined use of OHBFB and eriodictyol (isobologram analysis) (U266 [2]; U266, isobologram): synergistically enhances the anti-cancer activity of OHBFB; cell viability: enhancement of OHBFB anti-cancer activity by flavanone (U266 [3]): enhance the anti-cancer activity of OHBFB

**Q.** For `COc1ccc([C@@H]2CC(=O)c3c(O)cc(O)cc3O2)cc1O` [hesperetin], which “cell viability: enhancement of OHBFB anti-cancer activity by flavanone” value (U266 [3]) is on record?
**A.** enhance the anti-cancer activity of OHBFB

**Q.** How did the “cell viability: enhancement of OHBFB anti-cancer activity by flavanone” value (U266 [3]) turn out when `O=C1C[C@@H](c2ccc(O)cc2)Oc2cc(O)cc(O)c21` [naringenin] was run?
**A.** enhance the anti-cancer activity of OHBFB

**Q.** For `CCCc1nc(C)c2c(=O)[nH]c(-c3cc(S(=O)(=O)N4CCN(CC)CC4)ccc3OCC)nn12` [vardenafil], which IC50 (U266 [4]) is on record?
**A.** 92.7 µM
